The molecules below were run against T1, Edg-1/S1P1 receptor (Homo sapiens, UniProt P21453) (assay: In vitro cell based receptor activation assay - Transfluor assay (assay I or II; beta-arrestin GFP relocalization after S1P stimulation)). Settings: at 3.30 μM (run with this as top concentration).
T1 construct: expressed in transfected cells; host or cells: human osteogenic sarcoma U2OS cells: Edg-1 Transfluor U2OS WT Clone #37 (assay I), Edg-1 Transfluor U2OS Clone #3 (assay II)
Source text: The following assays can be used to measure the effects of the compounds of the present invention as S1P1/Edg1 inhibitors.
I. In Vitro Cell Based Receptor Activation Assay-Transfluor Assay
(§1) This cell-based assay was designed to assess the ability of small molecule antagonists to inhibit activation of the GPCR S1P1 in the presence of its cognate ligand S1P. The assay used technology initially developed by Norak Biosciences (Xsira Pharmaceutical) and presently owned by Molecular Devices. A human osteogenic sarcoma (U2OS) cell line overexpressing the Edg-1/S1P1) receptor as well as a beta-arrestin/green fluorescent protein (GFP) construct hereafter termed Edg-1 Transfluor U2OS WT Clone #37 was employed.
Using a high content screening approach (Cellomics Arrayscan), receptor activity was measured by assessment of the relocalization of beta-arrestin GFP in response to stimulation of Edg-1 by SIP. Specifically, Edg-1 Transfluor U2OS WT Clone #37 cells were plated at a density of 6250 cells in 40 μL medium per well in 384 well plastic bottomed microtiter plates (BD Falcon) and incubated overnight at 37° C./5% CO2. Prior to screening, compounds were dissolved in 100% dimethyl sulfoxide (DMSO) to a final stock concentration of 10 mM. Compounds were then serially diluted at 30× final concentration in Edg-1 Transfluor cell growth medium containing […] using the Tecan Genesis instrument. These 30× plates were then diluted to 6× final concentration with Edg-1 Transfluor growth medium just prior to dosing. Cells were then dosed with 10 μL per well of 6× compound dilutions or 6% DMSO and pre-incubated for 15 minutes at room temperature. Cell plates were dosed with 10 μL per well 6× S1P Edg-1 Transfluor growth medium, then incubated for 45 minutes at 37° C./5% CO2. Final concentration in the well of DMSO was 1%, compound was IX (3-fold, 9 point IC50 dilutions starting at 100 μM final concentration), and either 375 nM or […] SIP ligand. Cell plates were then fixed by adding 50 μL per well of 5% formaldehyde in 1× Dulbecco's phosphate buffered saline (DPBS) directly and incubating for 30 minutes at room temperature in darkness. Fixative was removed and replaced with 50 μL per well of 1×DPBS, after which cells were stained with 10 μg/mL final concentration of Hoechst 33342 (Molecular Probes) for 15 minutes at room temperature in darkness. Stain was then removed from the plates and replaced with 50 μL per well of 1×DPBS using the BioTek ExL405 plate washer. Plates were then sealed and analysed on the Cellomics Arrayscan using the GPCR signalling algorithm. EC50 values were then calculated using IDBS ActivityBase software.
II. In Vitro Cell Based Receptor Activation Assay-Transfluor Assay
as §1, with “Devices (MDS Analytical Technologies).” for “Devices.”, “U2OS” for “U2OS WT”, “#3” for “#37”
Using a high content screening approach (Molecular Devices Image Express), receptor activity was measured by assessment of the relocalization of beta-aiTestin GFP in response to stimulation of Edg-1 by S1P. Specifically, Edg-1 Transfluor U2OS Clone #3 cells were plated at a density of 6250 cells in 44 μL medium per well in 384 well plastic bottomed microtiter plates (BD Falcon) and incubated overnight at 37° C./5% CO2. Prior to screening, compounds were dissolved in 100% dimethyl sulfoxide (DMSO) to a final stock concentration of 10 mM. Compounds were then serially diluted at 10× final concentration in Edg-1 Transfluor cell growth medium containing 6% DMSO using the BioMek instrument. […]

T1 sequence (P21453 whole entry): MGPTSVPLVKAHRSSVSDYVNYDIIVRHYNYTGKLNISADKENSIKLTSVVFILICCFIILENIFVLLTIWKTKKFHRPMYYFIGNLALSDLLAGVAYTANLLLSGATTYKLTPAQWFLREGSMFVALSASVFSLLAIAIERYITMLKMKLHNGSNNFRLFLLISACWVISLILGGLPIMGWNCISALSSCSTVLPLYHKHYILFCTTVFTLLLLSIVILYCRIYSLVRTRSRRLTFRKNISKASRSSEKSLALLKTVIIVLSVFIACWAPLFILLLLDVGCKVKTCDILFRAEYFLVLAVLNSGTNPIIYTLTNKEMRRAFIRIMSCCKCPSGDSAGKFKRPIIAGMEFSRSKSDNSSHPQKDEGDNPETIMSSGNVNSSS

inhibition at 3.3 µM [%]	SMILES
92.1	CCn1c([C@@H](C)NS(=O)(=O)c2ccccc2)nc2ccc(C(F)(F)F)cc21 [Example 50, N-{(1R)-1-[1-Ethyl-6-(trifluoromethyl)-1H-benzimidazol-2-yl]ethyl}benzenesulfonamide]

Same assay, conditions: at 3.50 μM (titrated from top concentration 10 μM)

inhibition at 3.5 µM [%]	SMILES
92.5	CCn1c([C@@H](C)NS(=O)(=O)c2cccs2)nc2ccc(C(F)(F)F)cc21 [Example 39, N-{(1R)-1-[1-Ethyl-6-(trifluoromethyl)-1H-benzimidazol-2-yl]ethyl}thiophene-2-sulfonamide]
97.5	CCn1c([C@@H](C)NS(=O)(=O)c2ccc(C(=O)OC)n2C)nc2ccc(C(F)(F)F)cc21 [Example 40, (R)-methyl 5-(N-(1-(1-ethyl-6-(trifluoromethyl)-1H-benzo[d]imidazol-2-yl)ethyl)sulfamoyl)-1-methyl-1H-pyrrole-2-carboxylate]
96	CCn1c([C@@H](C)NS(=O)(=O)c2ccc3c(c2)OCO3)nc2ccc(C(F)(F)F)cc21 [Example 45, N-{(1R)-1-[1-Ethyl-6-(trifluoromethyl)-1H-benzimidazol-2-yl]ethyl}-1,3-benzodioxole-5-sulfonamide]
95.4	CCn1c([C@@H](C)NS(=O)(=O)c2cnc(Cl)c(Cl)c2)nc2ccc(C(F)(F)F)cc21 [Example 48, 5,6-dichloro-N-(1-(1-ethyl-6-(trifluoromethyl)-1H-benzo[d]imidazol-2-yl)ethyl)pyridine-3-sulfonamide]

The remaining lines, values behind:

SMILES	inhibition at 3.5 µM [%]
CCn1c([C@@H](C)NS(=O)(=O)c2ccc3c(c2)OCCN3C)nc2ccc(C(F)(F)F)cc21 [Example 43, N-{(1R)-1-[1-Ethyl-6-(trifluoromethyl)-1H-benzimidazol-2-yl]ethyl}-4-methyl-3,4-dihydro-2H-1,4-benzoxamide-7-sulfonamide]	93.3
CCn1c([C@@H](C)NS(=O)(=O)c2ccc3c(c2)OCCO3)nc2ccc(C(F)(F)F)cc21 [Example 44, N-{(1R)-1-[1-Ethyl-6-(trifluoromethyl)-1H-benzimidazol-2-yl]ethyl}-2,3-dihydro-1,4-benzodioxine-6-sulfonamide]	93.9
CCn1c([C@@H](C)NS(=O)(=O)c2ccc(Cl)cc2)nc2cc(F)c(Cl)cc21 [Example 56, 4-Chloro-N-[(1R)-1-(6-chloro-1-ethyl-5-fluoro-1H-benzimidazol-2-yl)ethyl]benzenesulfonamide]	96
CCn1c([C@@H](C)NS(=O)(=O)c2ccc(Cl)cc2)nc2cc3c(cc21)OCO3 [Example 63, (R)-4-Chloro-N-[1-(5-Ethyl-5H-[1,3]dioxolo[4′,5′;4,5]-benzo[1,2-d]imidazol-6-yl)-ethyl]benzenesulfonamide]	93.9

Same assay, conditions: at 3.70 μM (titrated from top concentration 100 μM)

inhibition at 3.7 µM [%]	SMILES
61	CCn1c([C@@H](C)NS(=O)(=O)c2cn(C)nc2C)nc2ccc(C(F)(F)F)cc21 [Example 41, N-{(1R)-1-[1-Ethyl-6-(trifluoromethyl)-1H-benzimidazol-2-yl]ethyl}-1,3-dimethyl-1H-pyrazole-4-sulfonamide]
41.3	CCn1c([C@@H](C)NS(=O)(=O)c2cn(C)c(C)n2)nc2ccc(C(F)(F)F)cc21 [Example 42, N-{(1R)-1-[1-Ethyl-6-(trifluoromethyl)-1H-benzimidazol-2-yl]ethyl}-1,2-dimethyl-1H-imidazole-4-sulfonamide]
89.8	CCn1c([C@@H](C)NS(=O)(=O)c2ccc3nsnc3c2)nc2ccc(C(F)(F)F)cc21 [Example 46, N-{(1R)-1-[1-Ethyl-6-(trifluoromethyl)-1H-benzimidazol-2-yl]ethyl}-2,1,3-benzothiadiazole-5-sulfonamide]
89.6	CCn1c([C@@H](C)NS(=O)(=O)c2ccsc2)nc2ccc(C(F)(F)F)cc21 [Example 47, N-{(1R)-1-[1-Ethyl-6-(trifluoromethyl)-1H-benzimidazol-2-yl]ethyl}thiophene-3-sulfonamide]
92.1	CCn1c([C@@H](C)NS(=O)(=O)c2cnc(Cl)c(Br)c2)nc2ccc(C(F)(F)F)cc21 [Example 49, 5-Bromo-6-chloro-N-{(1R)-1-[1-ethyl-6-(trifluoromethyl)-1H-benzimidazol-2-yl]ethyl}pyridine-3-sulfonamide]
92.8	CCn1c([C@@H](C)NS(=O)(=O)c2c(F)cc(F)cc2F)nc2ccc(C(F)(F)F)cc21 [Example 51, N-{(1R)-1-[1-Ethyl-6-(trifluoromethyl)-1H-benzimidazol-2-yl]ethyl}-2,4,6-trifluorobenzenesulfonamide]

The next lines start with the molecule.

SMILES	inhibition at 3.7 µM [%]
CCn1c([C@@H](C)NS(=O)(=O)C2CC2)nc2ccc(C(F)(F)F)cc21 [Example 38, N-{(1R)-1-[1-Ethyl-6-(trifluoromethyl)-1H-benz-imidazol-2-yl]ethyl}cyclo-propanesulfonamide]	35.1
CCn1c([C@@H](C)NS(=O)(=O)c2ccc(Cl)c3cccnc23)nc2ccc(C(F)(F)F)cc21 [Example 52, 5-Chloro-N-{(1R)-1-[1-ethyl-6-(trifluoromethyl)-1H-benzimidazol-2-yl]ethyl}-quinoline-8-sulfonamide]	89
CCCn1cc(S(=O)(=O)N[C@H](C)c2nc3ccc(C(F)(F)F)cc3n2CC)c(C)n1 [Example 53, N-{(1R)-1-[1-Ethyl-6-(trifluoromethyl)-1H-benzimidazol-2-yl]ethyl}-3-methyl-1-propyl-1H-pyrazole-4-sulfonamide]	84.5
CCCn1ncc(S(=O)(=O)N[C@H](C)c2nc3ccc(C(F)(F)F)cc3n2CC)c1C [Example 54, N-{(1R)-1-[1-Ethyl-6-(trifluoromethyl)-1H-benzimidazol-2-yl]ethyl}-5-methyl-1-propyl-1H-pyrazole-4-sulfonamide]	77.5
CCn1c([C@@H](C)NS(=O)(=O)c2ccc(Cl)cc2)nc2cc(F)cc(F)c21 [Example 57, 4-Chloro-N-[(1R)-1-(1-ethyl-5,7-difluoro-1H-benzimidazol-2-yl)ethyl]benzenesulfonamide]	84.5
CCn1c([C@@H](C)NS(=O)(=O)c2ccc(Cl)cc2)nc2cc(Cl)cc(Cl)c21 [Example 58, 4-Chloro-N-[(1R)-1-(5,7-dichloro-1-ethyl-1H-benzimidazol-2-yl)ethyl]benzenesulfonamide]	78.2
CCn1c([C@@H](C)NS(=O)(=O)c2ccc(Cl)cc2)nc2cc(C)c(Cl)cc21 [Example 59, 4-Chloro-N-[(1R)-1-(6-chloro-1-ethyl-5-methyl-1H-benzimidazol-2-yl)ethyl]benzenesulfonamide]	78.2
CCn1c([C@@H](C)NS(=O)(=O)c2ccc(Cl)cc2)nc2cccc(F)c21 [Example 60]	97.7
CCn1c([C@@H](C)NS(=O)(=O)c2ccc(Cl)cc2)nc2cc(OC)c(OC)cc21 [Example 61, 4-Chloro-N-[(1R)-1-(1-ethyl-5,6-dimethoxy-1H-benzimidazol-2-yl)ethyl]benzenesulfonamide]	54.9
CCn1c([C@@H](C)NS(=O)(=O)c2ccc(Cl)cc2)nc2cc3c(cc21)OCCO3 [Example 62, 4-Chloro-N-[(1R)-1-(1-ethyl-6,7-dihydro-1H-[1,4]dioxino-[2,3-f]benzimidazol-2-yl)-ethyl]benzenesulfonamide]	52.2
CCn1c([C@@H](C)NS(=O)(=O)c2ccc(Cl)cc2)nc2cc(OC(F)(F)F)ccc21 [Example 64, 4-Chloro-N-{(1R)-1-[1-ethyl-5-(trifluoromethoxy)-1H-benzimidazol-2-yl]ethyl}benzenesulfonamide]	50.6
